Results published in article PMC6001238, “Iterative Chemical Engineering of Vancomycin Leads to Novel Vancomycin Analogs With a High in Vitro Therapeutic Index” (Frontiers in Microbiology, 2018).
In brackets after ≈: the same amount, converted by molar mass.

Assays:
[1] = tested on: Murine leukemia (L1210) cells; experiment: Cytostatic activity, L1210 cell proliferation; assay type: cell-based; conditions: mean ± SD of three experiments; highest concentration tested 250 µM; 2 days; read-out: Toxicity (IC50) L1210
How it was run: (§1)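 Readout: Coulter cell number after drug exposure at 37°C. Durations differ by line (L1210 2 days; CEM 3 days; HeLa 4 days). Stock suspension 300,000–500,000 cells/mL, diluted by mixing with compound. Endpoint: IC50 vs negative control.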

[2] = tested on: human cervix carcinoma (HeLa) cells; experiment: Cytostatic activity, HeLa cell proliferation; assay type: cell-based; conditions: mean ± SD of three experiments; highest concentration tested 250 µM; 4 days; read-out: Toxicity (IC50) HeLa
How it was run: as §1

MRSA KS89 = experiment: MIC, broth microdilution, MRSA KS89; assay type: cell-based, Staphylococcus aureus; conditions: for MIC-fold improvement vs. vancomycin: MRSA KS8, ratio of MIC of vancomycin and MIC of analogue; for MIC: Staphylococcus aureus MRSA KS8, read-out: MIC
How it was run: (§2)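 Susceptibility was scored by broth microdilution (CLSI). In one instance each vancomycin analog or control antibiotic was tested in the presence of vancomycin, 10 μM final, and ultrapure water plus non-inoculated broth were included as controls.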

E. faecalis VRE 29 = experiment: MIC, broth microdilution, vancomycin-resistant E. faecalis VRE 29 (VanA); assay type: cell-based, Enterococcus faecalis; conditions: for MIC: Enterococcus faecalis VRE 29 (vancomycin-resistant), read-out: MIC; for MIC-fold improvement vs. vancomycin: VRE 29, ratio of MIC of vancomycin and MIC of analogue
How it was run: as §2

E. faecalis VSE 1 = experiment: MIC, broth microdilution, vancomycin-sensitive E. faecalis (VSE 1); assay type: cell-based, Enterococcus faecalis; conditions: for MIC: Enterococcus faecalis VSE 1 (vancomycin-sensitive), read-out: MIC; for MIC-fold improvement vs. vancomycin: VSE 1, ratio of MIC of vancomycin and MIC of analogue
How it was run: as §2

[3] = tested on: L1210, CEM and HeLa cell lines; experiment: Cytostatic activity, average or summary over L1210, CEM and HeLa; assay type: cell-based; conditions: average of L1210, CEM and HeLa; read-out: Toxicity (IC50) Average
How it was run: as §1

E. faecalis VRE 6 = experiment: MIC, broth microdilution, vancomycin-resistant E. faecalis VRE 6 (VanA); assay type: cell-based, Enterococcus faecalis; conditions: for MIC: Enterococcus faecalis VRE 6 (vancomycin-resistant), read-out: MIC; for MIC-fold improvement vs. vancomycin: VRE 6, ratio of MIC of vancomycin and MIC of analogue
How it was run: as §2

S. aureus VISA/HIP5827 = experiment: MIC, broth microdilution, vancomycin-intermediate S. aureus VISA HIP5827; assay type: cell-based, Staphylococcus aureus; conditions: for MIC: Staphylococcus aureus VISA/HIP5827, read-out: MIC; for MIC-fold improvement vs. vancomycin: VISA/HIP5827, ratio of MIC of vancomycin and MIC of analogue
How it was run: as §2

MRSA KS6 = experiment: MIC, broth microdilution, MRSA KS6; assay type: cell-based, Staphylococcus aureus; conditions: for MIC-fold improvement vs. vancomycin: MRSA KS6, ratio of MIC of vancomycin and MIC of analogue; for MIC: Staphylococcus aureus MRSA KS6, read-out: MIC
How it was run: as §2

E. faecalis VRE 37 = experiment: MIC, broth microdilution, vancomycin-resistant E. faecalis VRE 37 (VanA); assay type: cell-based, Enterococcus faecalis; conditions: for MIC: Enterococcus faecalis VRE 37 (vancomycin-resistant), read-out: MIC; for MIC-fold improvement vs. vancomycin: VRE 37, ratio of MIC of vancomycin and MIC of analogue
How it was run: as §2

MRSA KS2 = experiment: MIC, broth microdilution, MRSA KS2; assay type: cell-based, Staphylococcus aureus; conditions: for MIC-fold improvement vs. vancomycin: MRSA KS2, ratio of MIC of vancomycin and MIC of analogue; for MIC: Staphylococcus aureus MRSA KS2, read-out: MIC
How it was run: as §2

MRSA KS1 = experiment: MIC, broth microdilution, MRSA KS1; assay type: cell-based, Staphylococcus aureus; conditions: for MIC-fold improvement vs. vancomycin: MRSA KS1, ratio of MIC of vancomycin and MIC of analogue; for MIC: Staphylococcus aureus MRSA KS1, read-out: MIC
How it was run: as §2

S. aureus VRSA = experiment: MIC, broth microdilution, vancomycin-resistant S. aureus (VRSA); assay type: cell-based, Staphylococcus aureus; conditions: for MIC: Staphylococcus aureus VRSA, read-out: MIC; for MIC-fold improvement vs. vancomycin: VRSA, ratio of MIC of vancomycin and MIC of analogue
How it was run: as §2

[4] = tested on: S. aureus VSSA (ATCC 6538); experiment: MIC, broth microdilution, vancomycin-sensitive S. aureus (VSSA/MSSA, ATCC 6538); assay type: cell-based, Staphylococcus aureus; conditions: for MIC: Staphylococcus aureus VSSA, read-out: MIC; for MIC-fold improvement vs. vancomycin: VSSA, ratio of MIC of vancomycin and MIC of analogue
How it was run: as §2

[5] = tested on: human T-lymphocyte (CEM) cells; experiment: Cytostatic activity, CEM cell proliferation; assay type: cell-based; conditions: mean ± SD of three experiments; highest concentration tested 250 µM; 3 days; read-out: Toxicity (IC50) CEM
How it was run: as §1

E. faecalis VRE 53 = experiment: MIC, broth microdilution, vancomycin-resistant E. faecalis VRE 53 (VanA); assay type: cell-based, Enterococcus faecalis; conditions: for MIC: Enterococcus faecalis VRE 53 (vancomycin-resistant), read-out: MIC; for MIC-fold improvement vs. vancomycin: VRE 53, ratio of MIC of vancomycin and MIC of analogue
How it was run: as §2

Row | MIC-fold improvement vs. vancomycin (MRSA KS89) | MIC (MRSA KS89) [µM] | MIC (E. faecalis VRE 29) [µM] | MIC-fold improvement vs. vancomycin (E. faecalis VRE 29) | MIC (E. faecalis VSE 1) [µM] | MIC-fold improvement vs. vancomycin (E. faecalis VSE 1) | MIC (E. faecalis VRE 6) [µM] | MIC-fold improvement vs. vancomycin (E. faecalis VRE 6) | MIC (S. aureus VISA/HIP5827) [µM] | MIC-fold improvement vs. vancomycin (S. aureus VISA/HIP5827) | MIC-fold improvement vs. vancomycin (MRSA KS6) | MIC (MRSA KS6) [µM] | MIC (E. faecalis VRE 37) [µM] | MIC-fold improvement vs. vancomycin (E. faecalis VRE 37) | MIC-fold improvement vs. vancomycin (MRSA KS2) | MIC (MRSA KS2) [µM] | MIC-fold improvement vs. vancomycin (MRSA KS1) | SMILES | IC50 [1] [µM] | IC50 [2] [µM] | IC50 [3] [µM] | further results
1 | 1 | 0.78 (≈ 1.26 µg/mL) | 12.5 (≈ 20.1 µg/mL) | 32 | 1.56 (≈ 2.51 µg/mL) | 1 | 6.25 (≈ 10.1 µg/mL) | 32 | 1.56 (≈ 2.51 µg/mL) | 4 | 1 | 0.78 (≈ 1.26 µg/mL) | 25 (≈ 40.2 µg/mL) | 16 | 2 | 0.39 (≈ 0.628 µg/mL) | 1 | CN[C@H](CC(C)C)C(=O)N[C@H]1C(=O)N[C@@H](CC(N)=O)C(=O)N[C@H]2C(=O)N[C@H]3C(=O)N[C@H](C(=O)N[C@H](C(=O)NCC(=O)Nc4ccc(C)cc4C)c4cc(O)cc(O)c4-c4cc3ccc4O)[C@H](O)c3ccc(c(Cl)c3)Oc3cc2cc(c3O[C@@H]2O[C@H](CO)[C@@H](O)[C@H](O)[C@H]2O[C@H]2C[C@](C)(N)[C@H](O)[C@H](C)O2)Oc2ccc(cc2Cl)[C@H]1O [Vanc-15] | > 250 | 87 ± 12 | 196 | MIC (MRSA KS1): 0.78 µM (≈ 1.26 µg/mL); MIC (S. aureus VRSA): 12.5 µM (≈ 20.1 µg/mL); MIC-fold improvement vs. vancomycin (S. aureus VRSA): 8; MIC [4]: 0.78 µM (≈ 1.26 µg/mL); MIC-fold improvement vs. vancomycin [4]: 1; IC50 [5]: > 250 µM; MIC (E. faecalis VRE 53): 25 µM (≈ 40.2 µg/mL); MIC-fold improvement vs. vancomycin (E. faecalis VRE 53): 16
2 | 2 | 0.39 (≈ 0.638 µg/mL) | 25 (≈ 40.9 µg/mL) | 16 | 0.78 (≈ 1.28 µg/mL) | 2 | 12.5 (≈ 20.4 µg/mL) | 16 | 0.78 (≈ 1.28 µg/mL) | 8 | 2 | 0.39 (≈ 0.638 µg/mL) | 25 (≈ 40.9 µg/mL) | 16 | 2 | 0.39 (≈ 0.638 µg/mL) | 2 | CN[C@H](CC(C)C)C(=O)N[C@H]1C(=O)N[C@@H](CC(N)=O)C(=O)N[C@H]2C(=O)N[C@H]3C(=O)N[C@H](C(=O)N[C@H](C(=O)NCCNC(=O)/C=C/c4ccc(C)cc4)c4cc(O)cc(O)c4-c4cc3ccc4O)[C@H](O)c3ccc(c(Cl)c3)Oc3cc2cc(c3O[C@@H]2O[C@H](CO)[C@@H](O)[C@H](O)[C@H]2O[C@H]2C[C@](C)(N)[C@H](O)[C@H](C)O2)Oc2ccc(cc2Cl)[C@H]1O [Vanc-53] | 176 ± 18 | 176 ± 103 | 168 | MIC (MRSA KS1): 0.39 µM (≈ 0.638 µg/mL); MIC (S. aureus VRSA): 0.39 µM (≈ 0.638 µg/mL); MIC-fold improvement vs. vancomycin (S. aureus VRSA): 256; MIC [4]: 0.39 µM (≈ 0.638 µg/mL); MIC-fold improvement vs. vancomycin [4]: 2; IC50 [5]: 152 ± 43 µM; MIC (E. faecalis VRE 53): 12.5 µM (≈ 20.4 µg/mL); MIC-fold improvement vs. vancomycin (E. faecalis VRE 53): 32
